Test results: patent publication US20260183302A1, “PDK1 REGULATORY COMPOUND AND COMPOSITION CONTAINING THE SAME” (PROVIBIO CO., LTD., priority 2024, published 2026)

Assays:
[1] = system: T cells isolated from mouse spleens; test: T cell proliferation inhibition (CFSE flow cytometry, anti-CD3/anti-CD28 stimulation); assay type: cell-based, C57BL/6 mice; conditions: three days
Method: To verify the T cell proliferation inhibitory effect of the compounds according to the present invention, the following experiment was performed based on flow cytometry analysis using carboxyfluorescein diacetate succinimidyl ester (CFSE), a fluorescent dye that binds to intracellular molecules via covalent bonds.
Spleens were extracted from 7-week-old C57BL/6 mice, ground, and then separated into single cells using a strainer (40 μm pore size, SPL). Red blood cells were removed using ACK (Ammonium-Chloride-Potassium) lysis buffer to isolate white blood cells.
Finally, using a MACS Magnetic Stand and LS column, T cells were isolated from the spleen.
The T cells isolated from the spleen were resuspended in 1 mL of free medium (RPMI-1640+200 U/mL penicillin+200 μg/mL streptomycin), and 0.3 μL of CFSE (10 mM) was added. The mixture was incubated at 37° C. for 5 minutes.
Free medium (10 mL) was added to stop the reaction, and the cells were centrifuged to obtain the cell pellet.
RPMI 1640 medium containing 10% FBS, 100 U/mL penicillin, 100 μg/mL streptomycin, and resuspended the cells. The cells were then seeded into a 96-well plate at a density of 2× 10^5 cells per well and activated with CD3 and CD28 antibodies (0.5 μg/mL each) to activate T cells.
The compound diluted in DMSO was added at concentrations of 10 nM, 100 nM, 1 μM, 10 μM, 30 μM, and 50 μM, with three wells per concentration, and cultured at 37° C. and 5% CO2 for three days. The cells were then analyzed using a FACS Canto instrument.
The proliferation inhibition rate (%) was calculated using the following formula: […]

[2] = system: Human B Lymphocyte cell line, SU-DHL-8; test: Relative cell viability, SU-DHL-8 (CCK-8); assay type: cell-based; conditions: 48 hours, untreated (DMSO) = 100%
Method: Human-derived B lymphoma cell line SU-DHL-8 (Cat. #CRL-2961) purchased from ATCC was cultured in RPMI-1640 medium containing 10% FBS, 100 U/mL penicillin, and 100 μg/mL streptomycin.
The cell culture medium was then harvested, centrifuged at 1,300 rpm for 5 minutes, and the supernatant was removed. The cells were resuspended in the same medium and dispensed into a 96-well plate (Costar 96-well cell culture plate, Corning) at 90 μL per well, resulting in the conditions specified in Table 5.
Then, 10 μL of CCK-8 was added to each well, and the plates were incubated again at 37° C. in a 5% CO2 incubator for 4 hours.
In other words, when the survival rate of untreated cells (DMSO) is set at 100%, the relative cell survival rate in each group treated with the drug at different concentrations is indicated.

Structure (SMILES): CC1CN(CCCCCCCCCCCCNC(=O)c2cccnc2N)CC(C)O1 (stereo not drawn) [Compound 21, 2-Amino-N-(12-(2,6-dimethylmorpholino)dodecyl) nicotinamide]
- Proliferation inhibition rate (%) ([1]; concentration 100 nM): 100.00%
- Proliferation inhibition rate (%) ([1]; concentration 1 μM): 100.00%
- Proliferation inhibition rate (%) ([1]; concentration 10 μM): 100.00%
- Proliferation inhibition rate (%) ([1]; concentration 30 μM): 100.00%
- Proliferation inhibition rate (%) ([1]; concentration 50 μM): 100.00%
- Relative cell viability (%) ([2]; SU-DHL-8, 1 μM): 9.64%
- Relative cell viability (%) ([2]; SU-DHL-8, 10 μM): 7.68%
- Relative cell viability (%) ([2]; SU-DHL-8, 30 μM): 3.70%

Structure (SMILES): CC1(C)CCN(CCCCCCCCCCCCNC(=O)c2cccnc2N)C1 [Compound 22, 2-Amino-N-(12-(3,3-dimethylpyrrolidin-1-yl)dodecyl) nicotinamide]
- Proliferation inhibition rate (%) ([1]; concentration 10 nM): −0.80%
- Proliferation inhibition rate (%) ([1]; concentration 100 nM): 100.00%
- Proliferation inhibition rate (%) ([1]; concentration 1 μM): 100.00%
- Proliferation inhibition rate (%) ([1]; concentration 10 μM): 100.00%
- Proliferation inhibition rate (%) ([1]; concentration 30 μM): 100.00%
- Proliferation inhibition rate (%) ([1]; concentration 50 μM): 100.00%
- Relative cell viability (%) ([2]; SU-DHL-8, 1 μM): 6.46%
- Relative cell viability (%) ([2]; SU-DHL-8, 10 μM): 2.85%
- Relative cell viability (%) ([2]; SU-DHL-8, 30 μM): 2.45%
- Relative cell viability (%) ([2]; SU-DHL-8, 50 μM): 1.67%

Structure (SMILES): CC1CCN(CCCCCCCCCCCCNC(=O)c2cccnc2N)C1 (stereo not drawn) [Compound 24, 2-Amino-N-(12-(3-methylpyrrolidin-1-yl)dodecyl) nicotinamide]
- Proliferation inhibition rate (%) ([1]; concentration 100 nM): 100.00%
- Proliferation inhibition rate (%) ([1]; concentration 1 μM): 100.00%
- Proliferation inhibition rate (%) ([1]; concentration 10 μM): 100.00%
- Proliferation inhibition rate (%) ([1]; concentration 30 μM): 100.00%
- Proliferation inhibition rate (%) ([1]; concentration 50 μM): 100.00%
- Relative cell viability (%) ([2]; SU-DHL-8, 1 μM): 8.38%
- Relative cell viability (%) ([2]; SU-DHL-8, 10 μM): 1.65%
- Relative cell viability (%) ([2]; SU-DHL-8, 30 μM): 0.62%

Structure (SMILES): Nc1ncccc1C(=O)NCCCCCCCCCCCCN1CCS(=O)(=O)CC1 [Compound 25, 2-Amino-N-(12-(1,1-dioxidothiomorpholino)dodecyl) nicotinamide]
- Proliferation inhibition rate (%) ([1]; concentration 1 μM): 100.00%
- Proliferation inhibition rate (%) ([1]; concentration 10 μM): 100.00%
- Proliferation inhibition rate (%) ([1]; concentration 30 μM): 100.00%
- Proliferation inhibition rate (%) ([1]; concentration 50 μM): 100.00%
- Relative cell viability (%) ([2]; SU-DHL-8, 1 μM): 9.73%
- Relative cell viability (%) ([2]; SU-DHL-8, 10 μM): 1.26%
- Relative cell viability (%) ([2]; SU-DHL-8, 30 μM): 0.11%
- Relative cell viability (%) ([2]; SU-DHL-8, 50 μM): 0.95%

Structure (SMILES): Nc1ncccc1C(=O)NCCCCCCCCCCCCN1CCC(F)C1 (stereo not drawn) [Compound 26, 2-Amino-N-(12-(3-fluoropyrrolidin-1-yl)dodecyl) nicotinamide]
- Proliferation inhibition rate (%) ([1]; concentration 100 nM): 100.00%
- Proliferation inhibition rate (%) ([1]; concentration 1 μM): 100.00%
- Proliferation inhibition rate (%) ([1]; concentration 10 μM): 100.00%
- Proliferation inhibition rate (%) ([1]; concentration 30 μM): 100.00%
- Proliferation inhibition rate (%) ([1]; concentration 50 μM): 100.00%
- Relative cell viability (%) ([2]; SU-DHL-8, 1 μM): 1.70%
- Relative cell viability (%) ([2]; SU-DHL-8, 10 μM): 1.04%
- Relative cell viability (%) ([2]; SU-DHL-8, 30 μM): 0.05%

Structure (SMILES): CN1CCN(CCCCCCCCCCCCNC(=O)c2ccnc(Cl)c2Cl)CC1 [Compound 198, 2,3-Dichloro-N-(12-(4-methylpiperazin-1-yl)dodecyl) isonicotinamide]
- Proliferation inhibition rate (%) ([1]; concentration 10 nM): 5.35%
- Proliferation inhibition rate (%) ([1]; concentration 100 nM): 9.41%
- Proliferation inhibition rate (%) ([1]; concentration 1 μM): 20.12%
- Proliferation inhibition rate (%) ([1]; concentration 10 μM): 100.00%
- Proliferation inhibition rate (%) ([1]; concentration 30 μM): 100.00%
- Proliferation inhibition rate (%) ([1]; concentration 50 μM): 100.00%

Structure (SMILES): CN1CCN(CCCCCCCCCCCCNC(=O)c2ccncc2Cl)CC1 [Compound 199, 3-Chloro-N-(12-(4-methylpiperazin-1-yl)dodecyl) isonicotinamide]
- Proliferation inhibition rate (%) ([1]; concentration 10 nM): 0.00%
- Proliferation inhibition rate (%) ([1]; concentration 100 nM): 0.00%
- Proliferation inhibition rate (%) ([1]; concentration 1 μM): 0.00%
- Proliferation inhibition rate (%) ([1]; concentration 10 μM): 40.00%
- Proliferation inhibition rate (%) ([1]; concentration 30 μM): 100.00%
- Proliferation inhibition rate (%) ([1]; concentration 50 μM): 100.00%

Structure (SMILES): CN1CCN(CCCCCCCCCCCCNC(=O)c2c(Cl)cncc2Cl)CC1 [Compound 201, 3,5-Dichloro-N-(12-(4-methylpiperazin-1-yl)dodecyl) isonicotinamide]
- Proliferation inhibition rate (%) ([1]; concentration 10 nM): 7.24%
- Proliferation inhibition rate (%) ([1]; concentration 100 nM): 6.66%
- Proliferation inhibition rate (%) ([1]; concentration 1 μM): 8.54%
- Proliferation inhibition rate (%) ([1]; concentration 10 μM): 78.44%
- Proliferation inhibition rate (%) ([1]; concentration 30 μM): 100.00%
- Proliferation inhibition rate (%) ([1]; concentration 50 μM): 100.00%

Structure (SMILES): Cc1ccc(C(=O)NCCCCCCCCCCCCN2CCN(C)CC2)nc1 [Compound 202, 5-Methyl-N-(12-(4-methylpiperazin-1-yl)dodecyl) picolinamide]
- Proliferation inhibition rate (%) ([1]; concentration 10 nM): 4.05%
- Proliferation inhibition rate (%) ([1]; concentration 100 nM): 13.17%
- Proliferation inhibition rate (%) ([1]; concentration 1 μM): 18.96%
- Proliferation inhibition rate (%) ([1]; concentration 10 μM): 100.00%
- Proliferation inhibition rate (%) ([1]; concentration 30 μM): 100.00%
- Proliferation inhibition rate (%) ([1]; concentration 50 μM): 100.00%

Structure (SMILES): CN1CCN(CCCCCCCCCCCCNC(=O)c2ccc(F)cn2)CC1 [Compound 203, 5-Fluoro-N-(12-(4-methylpiperazin-1-yl)dodecyl) picolinamide]
- Proliferation inhibition rate (%) ([1]; concentration 10 nM): −4.49%
- Proliferation inhibition rate (%) ([1]; concentration 100 nM): 1.16%
- Proliferation inhibition rate (%) ([1]; concentration 1 μM): 6.80%
- Proliferation inhibition rate (%) ([1]; concentration 10 μM): 100.00%
- Proliferation inhibition rate (%) ([1]; concentration 30 μM): 100.00%
- Proliferation inhibition rate (%) ([1]; concentration 50 μM): 100.00%

Structure (SMILES): COc1ccc(C(=O)NCCCCCCCCCCCCN2CCN(C)CC2)nc1 [Compound 204, 5-methoxy-N-(12-(4-methylpiperazin-1-yl)dodecyl) picolinamide]
- Proliferation inhibition rate (%) ([1]; concentration 10 nM): −2.60%
- Proliferation inhibition rate (%) ([1]; concentration 100 nM): −0.14%
- Proliferation inhibition rate (%) ([1]; concentration 1 μM): 12.30%
- Proliferation inhibition rate (%) ([1]; concentration 10 μM): 95.01%
- Proliferation inhibition rate (%) ([1]; concentration 30 μM): 100.00%
- Proliferation inhibition rate (%) ([1]; concentration 50 μM): 100.00%

Structure (SMILES): CN1CCN(CCCCCCCCCCCCNC(=O)c2ccncc2N)CC1 [Compound 209, 3-Amino-N-(12-(4-methylpiperazin-1-yl)dodecyl) isonicotinamide]
- Proliferation inhibition rate (%) ([1]; concentration 10 nM): −1.45%
- Proliferation inhibition rate (%) ([1]; concentration 100 nM): 1.59%
- Proliferation inhibition rate (%) ([1]; concentration 1 μM): 18.81%
- Proliferation inhibition rate (%) ([1]; concentration 10 μM): 84.52%
- Proliferation inhibition rate (%) ([1]; concentration 30 μM): 100.00%
- Proliferation inhibition rate (%) ([1]; concentration 50 μM): 100.00%
